Test results as given in BindingDB's records for doi:10.1021/jm050267e (Johnson & Johnson Pharmaceutical, 2005).

Legend:
Test in all cases: Kinase Inhibition Assay
[1] = biological target: Cyclin-dependent kinase 4/G1/S-specific cyclin-D1 (Mus musculus, UniProt P30285)
Experimental: (§1) The enzyme was assayed with a biotinylated peptide substrate and test compounds in the presence of 10 uM ATP/[gamma-33P]ATP in a streptavidin coated FlashPlate (Perkin-Elmer, Boston, MA). Inhibition of the enzymatic activity due to the compound was measured by observing a reduced amount of 33P-gamma-ATP incorporated into the immobilized peptide relative to untreated controls. Linear regression analysis of the percent of inhibition by the test compound was used to calculate IC50 values.

[2] = biological target: Cyclin-A2/Cyclin-dependent kinase 2 (Homo sapiens, UniProt P24941)
Experimental: as §1

[3] = biological target: Cyclin-dependent kinase/G2/mitotic-specific cyclin- 1 (Homo sapiens, UniProt P06493); details: pH 8; 30 °C
Experimental: as §1

[4] = biological target: Vascular endothelial growth factor receptor 2 (Rattus norvegicus, UniProt O08775)
Experimental: as §1

Cyclin-dependent kinase/G2/mitotic-specific cyclin- 1, sequence (P06493 whole entry): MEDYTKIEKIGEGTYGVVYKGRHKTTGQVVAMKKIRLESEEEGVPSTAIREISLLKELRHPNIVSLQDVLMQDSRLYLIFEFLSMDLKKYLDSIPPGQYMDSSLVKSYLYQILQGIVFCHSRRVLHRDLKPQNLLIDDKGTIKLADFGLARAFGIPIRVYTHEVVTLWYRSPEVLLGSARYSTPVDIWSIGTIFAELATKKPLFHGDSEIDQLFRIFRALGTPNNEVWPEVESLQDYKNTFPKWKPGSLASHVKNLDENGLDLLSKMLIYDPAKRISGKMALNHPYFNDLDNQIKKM
Cyclin-dependent kinase/G2/mitotic-specific cyclin- 1, sequence (P14635 whole entry, further chain): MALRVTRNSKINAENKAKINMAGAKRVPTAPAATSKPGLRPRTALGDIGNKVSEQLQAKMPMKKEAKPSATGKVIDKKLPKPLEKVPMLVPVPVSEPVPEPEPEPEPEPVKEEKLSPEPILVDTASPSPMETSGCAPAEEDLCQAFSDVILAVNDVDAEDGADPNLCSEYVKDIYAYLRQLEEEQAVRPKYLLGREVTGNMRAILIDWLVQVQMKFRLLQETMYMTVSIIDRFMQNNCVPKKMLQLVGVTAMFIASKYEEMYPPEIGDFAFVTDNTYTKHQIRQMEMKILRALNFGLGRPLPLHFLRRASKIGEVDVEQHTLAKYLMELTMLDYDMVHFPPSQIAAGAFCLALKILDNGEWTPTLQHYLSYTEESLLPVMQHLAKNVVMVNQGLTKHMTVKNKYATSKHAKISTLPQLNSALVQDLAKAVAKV
Cyclin-dependent kinase 4/G1/S-specific cyclin-D1, sequence (P25322 whole entry): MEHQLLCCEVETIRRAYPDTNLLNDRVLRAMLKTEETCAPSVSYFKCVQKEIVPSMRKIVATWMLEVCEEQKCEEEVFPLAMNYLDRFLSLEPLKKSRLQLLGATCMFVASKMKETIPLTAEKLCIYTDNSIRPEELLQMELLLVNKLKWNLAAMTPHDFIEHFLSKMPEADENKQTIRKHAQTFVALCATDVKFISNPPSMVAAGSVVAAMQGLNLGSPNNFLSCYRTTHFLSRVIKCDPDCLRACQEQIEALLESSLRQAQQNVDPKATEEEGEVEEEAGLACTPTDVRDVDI
Cyclin-dependent kinase 4/G1/S-specific cyclin-D1, sequence (P30285 whole entry): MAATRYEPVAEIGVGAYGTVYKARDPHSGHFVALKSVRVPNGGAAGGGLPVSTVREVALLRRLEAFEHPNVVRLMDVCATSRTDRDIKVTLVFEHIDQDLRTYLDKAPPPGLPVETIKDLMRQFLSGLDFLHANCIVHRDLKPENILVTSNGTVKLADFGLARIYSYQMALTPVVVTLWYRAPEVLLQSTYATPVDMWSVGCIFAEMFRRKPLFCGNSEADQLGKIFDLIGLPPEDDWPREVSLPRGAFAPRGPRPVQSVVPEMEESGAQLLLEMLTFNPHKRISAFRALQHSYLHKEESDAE
Vascular endothelial growth factor receptor 2, sequence (O08775 whole entry): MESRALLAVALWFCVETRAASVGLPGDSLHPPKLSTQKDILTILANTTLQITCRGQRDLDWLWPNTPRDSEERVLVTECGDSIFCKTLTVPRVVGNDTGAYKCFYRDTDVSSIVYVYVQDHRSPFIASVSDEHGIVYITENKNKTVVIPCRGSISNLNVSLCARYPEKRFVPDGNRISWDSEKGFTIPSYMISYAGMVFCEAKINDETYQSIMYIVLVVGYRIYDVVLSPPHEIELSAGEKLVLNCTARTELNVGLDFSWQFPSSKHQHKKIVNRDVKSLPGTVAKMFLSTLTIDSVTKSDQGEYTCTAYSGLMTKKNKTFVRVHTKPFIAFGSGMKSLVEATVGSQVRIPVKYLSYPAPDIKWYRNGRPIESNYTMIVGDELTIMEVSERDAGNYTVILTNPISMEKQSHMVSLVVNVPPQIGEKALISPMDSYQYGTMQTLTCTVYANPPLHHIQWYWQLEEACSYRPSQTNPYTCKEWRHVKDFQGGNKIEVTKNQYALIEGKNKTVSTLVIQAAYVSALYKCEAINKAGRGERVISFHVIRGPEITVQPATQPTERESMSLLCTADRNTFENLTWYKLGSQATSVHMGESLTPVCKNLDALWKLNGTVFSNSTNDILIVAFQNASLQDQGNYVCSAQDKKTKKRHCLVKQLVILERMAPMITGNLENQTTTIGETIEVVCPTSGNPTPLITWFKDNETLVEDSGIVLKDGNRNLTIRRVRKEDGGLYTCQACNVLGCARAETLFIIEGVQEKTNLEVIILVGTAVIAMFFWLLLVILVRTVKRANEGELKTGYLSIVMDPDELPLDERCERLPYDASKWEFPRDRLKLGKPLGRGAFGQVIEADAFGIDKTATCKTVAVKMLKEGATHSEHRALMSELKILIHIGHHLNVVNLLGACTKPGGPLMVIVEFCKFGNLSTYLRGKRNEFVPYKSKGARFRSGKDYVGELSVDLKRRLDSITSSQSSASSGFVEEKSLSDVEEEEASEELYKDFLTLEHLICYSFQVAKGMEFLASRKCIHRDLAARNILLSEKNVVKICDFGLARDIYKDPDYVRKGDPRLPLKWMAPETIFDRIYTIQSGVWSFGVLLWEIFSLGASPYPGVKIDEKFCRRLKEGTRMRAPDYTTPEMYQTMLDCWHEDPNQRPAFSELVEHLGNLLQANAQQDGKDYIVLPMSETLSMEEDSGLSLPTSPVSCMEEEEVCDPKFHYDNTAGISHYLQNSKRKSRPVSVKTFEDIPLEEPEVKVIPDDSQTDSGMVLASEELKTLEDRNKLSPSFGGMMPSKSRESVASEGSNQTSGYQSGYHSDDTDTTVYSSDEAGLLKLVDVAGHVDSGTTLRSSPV

Row | SMILES | IC50 [1] | IC50 [2] | IC50 [3] | IC50 [4]
1 | Cc1ccc(F)c(C(=O)n2nc(Nc3ccc(S(N)(=O)=O)cc3)nc2N)c1F [4-({5-amino-1-[(2,6-difluoro-3-methylphenyl)carbonyl]-1H-1,2,4-triazol-3-yl}amino)benzene-1-sulfonamide] | 190 nM | 0.3 nM | 8 nM | 510 nM
2 | Nc1nc(Nc2ccc(S(N)(=O)=O)cc2)nn1C(=O)c1c(F)ccc(F)c1F [4-[[5-Amino-1-(2,3,6-trifluorobenzoyl)-1H-1,2,4-triazol-3-yl]amino]-benzenesulfonamide] |  |  | 3.2 nM | 
